Literature values, collected in US11753385B2, “Method for producing kakeromycin and derivatives thereof” (OP BIO FACTORY CO., LTD., priority 2015, dated 2023).

Key:
pathogens of candidiasis = settings: background statement, in words only
[1] = system: PANC-1 pancreas cancer cell

SMILES: CC=C(Cc1ccccc1)C12CC(O)CCN1O2 (stereo not drawn) [kakeromycin]
- antibacterial activity against pathogens of candidiasis (pathogens of candidiasis): strong antibacterial activity
- cytotoxicity [1]: shows cytotoxicity
- cytotoxicity (HepG2 liver cancer cell): shows cytotoxicity
